These results are taken from PubChem BioAssay AID328 (DTP/NCI, 2004).

The subject of the test is BDF1 mice, P388 leukemia ip, median survival T/C. Nature of the test: NCI In Vivo Anticancer Drug Screen. Data for tumor model P388 Leukemia (intraperitoneal) in B6D2F1 (BDF1) mice. The settings on record: endpoint: median survival time, higher = longer survival. The essentials:
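Reported as T/C, where T is the survival measurement in dosed animals and C the same measurement in vehicle controls.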

[1] abbreviates: dose: 12.5 mg/kg/injection, schedule: Q01DX009 (ip), vehicle: saline.
The mark [2] stands for this setting: dose: 25.0 mg/kg/injection, schedule: Q01DX009 (ip), vehicle: saline.
Where [3] appears, read: dose: 100.0 mg/kg/injection, schedule: Q04DX003 (ip), vehicle: saline with Tween-80.
Setting [4] is: dose: 200.0 mg/kg/injection, schedule: Q04DX003 (ip), vehicle: saline with Tween-80.
Setting [5] is: dose: 400.0 mg/kg/injection, schedule: Q04DX003 (ip), vehicle: saline with Tween-80.
Setting [6] is: dose: 50.0 mg/kg/injection, schedule: Q01DX009 (ip), vehicle: Klucel (hydroxypropylcellulose) (HPC).
Where [7] appears, read: dose: 100.0 mg/kg/injection, schedule: Q01DX009 (ip), vehicle: Klucel (hydroxypropylcellulose) (HPC).
[8] abbreviates: dose: 100.0 mg/kg/injection, schedule: Q04DX003 (ip), vehicle: Klucel (hydroxypropylcellulose) (HPC).
[9] abbreviates: dose: 200.0 mg/kg/injection, schedule: Q04DX003 (ip), vehicle: Klucel (hydroxypropylcellulose) (HPC).
Setting [10] is: dose: 100.0 mg/kg/injection, schedule: Q01DX009 (ip), vehicle: saline with Tween-80.
Setting [11] is: dose: 200.0 mg/kg/injection, schedule: Q01DX009 (ip), vehicle: saline with Tween-80.
The mark [12] stands for this setting: dose: 400.0 mg/kg/injection, schedule: Q01DX009 (ip), vehicle: saline with Tween-80.
The mark [13] stands for this setting: dose: 50.0 mg/kg/injection, schedule: Q01DX009 (ip), vehicle: saline with Tween-80.

Several values for one entry are separate records, joined by “and”; a condition that tells them apart may be missing. Identical values can stand only once. Toxic doses and inconclusive results are not listed.

Turning to `C1CCc2nnnn2CC1`, the T/C was 91 % of control (dose: 2.34 mg/kg/injection, schedule: Q04DX003 (ip), vehicle: saline); 91 % of control (dose: 4.68 mg/kg/injection, schedule: Q04DX003 (ip), vehicle: saline); 91 % of control (dose: 9.37 mg/kg/injection, schedule: Q04DX003 (ip), vehicle: saline); 118 % of control under setting [1]; 100 % of control (dose: 18.75 mg/kg/injection, schedule: Q04DX003 (ip), vehicle: saline); 118 % of control under setting [2].

For `CN(N=O)c1ccc(/C=C/c2ccnc3ccccc23)cc1`, the T/C (dose: 100.0 mg/kg/injection, schedule: Q01DX009 (ip), vehicle: saline sonified) was 115 % of control.

As for `O=C(Nc1cc(Cl)ccc1C(=O)O)c1cccc(C[n+]2ccccc2)c1`, the T/C reads like this: (dose: 50.0 mg/kg/injection, schedule: Q01DX005 (ip), vehicle: saline with Tween-80) 111 % of control; (dose: 100.0 mg/kg/injection, schedule: Q01DX005 (ip), vehicle: saline with Tween-80) 111 % of control.

Take `CC1=CC2OC34COC3CC(OC(=O)C(F)(F)F)C4(C)C2(C)CC1` (stereo not given): the T/C was 110 % of control (dose: 75.0 mg/kg/injection, schedule: Q04DX003 (ip), vehicle: saline with Tween-80) and 117 % of control (dose: 300.0 mg/kg/injection, schedule: Q04DX003 (ip), vehicle: saline with Tween-80).

For `CCc1c(/C=C2/OC(=O)NC2=O)[nH]c(=S)[nH]c1=O`, the T/C reads like this: under setting [3], 100 % of control; under setting [4], 91 % of control; under setting [5], 104 % of control.

As to `N=C(N)SCc1ccc(CSC(=N)N)s1`, the T/C is 97 % of control (dose: 6.25 mg/kg/injection, schedule: Q01DX009 (ip), vehicle: saline); 106 % of control under setting [1]; 106 % of control under setting [2].

Turning to `Oc1cc(Cl)c(Cl)c(Cl)c1`, the T/C (dose: 100.0 mg/kg/injection, schedule: Q04DX002 (ip), vehicle: saline with Tween-80) was 102 % of control; the T/C (dose: 200.0 mg/kg/injection, schedule: Q04DX002 (ip), vehicle: saline with Tween-80) was 98 % of control; the T/C (dose: 400.0 mg/kg/injection, schedule: Q04DX002 (ip), vehicle: saline with Tween-80) is 97 % of control.

As for `COc1cccc2c1CCC1C2CC=C2CC3(CCC21C)OCCO3` (stereo not given), the T/C (dose: 50.0 mg/kg/injection, schedule: Q04DX003 (sc), vehicle: steriod suspending solution) is 100 % of control; the T/C (dose: 100.0 mg/kg/injection, schedule: Q04DX003 (sc), vehicle: steriod suspending solution) was 104 % of control; the T/C (dose: 200.0 mg/kg/injection, schedule: Q04DX003 (sc), vehicle: steriod suspending solution) is 91 % of control; the T/C (dose: 400.0 mg/kg/injection, schedule: Q04DX003 (sc), vehicle: steriod suspending solution) was 100 % of control.

Consider `COc1cccc(CC(=O)C(=O)O)c1`, for which the T/C under setting [6] is 95 % of control; the T/C (dose: 50.0 mg/kg/injection, schedule: Q04DX003 (ip), vehicle: Klucel (hydroxypropylcellulose) (HPC)) was 100 % of control; the T/C under setting [7] is 104 % of control; the T/C under setting [8] is 115 % of control; the T/C (dose: 200.0 mg/kg/injection, schedule: Q01DX009 (ip), vehicle: Klucel (hydroxypropylcellulose) (HPC)) was 90 % of control; the T/C under setting [9] was 110 % of control.

`CCCCCCCCCCCCCCCCOc1ccccc1CNc1cccc(S(=O)(=O)F)c1`: the T/C by setting is: under setting [10], 95 % of control; under setting [11], 95 % of control; under setting [12], 95 % of control.

In the case of `COc1ccc(CCn2nnc3ccccc3c2=O)cc1OC`, the T/C runs as follows: under setting [13], 98 % of control; under setting [10], 99 % of control; under setting [11], 105 % of control.

`C[C@]12CCC(=O)C=C1CC[C@H]1[C@@H]3CC[C@@]4(OCC4=O)[C@@]3(C)C[C@H](O)[C@@]12F`: the T/C was 96 % of control (dose: 25.0 mg/kg/injection, schedule: Q01DX009 (ip), vehicle: Klucel (hydroxypropylcellulose) (HPC)); 104 % of control under setting [6]; 104 % of control under setting [7]; 104 % of control under setting [8]; 112 % of control under setting [9]; 108 % of control (dose: 400.0 mg/kg/injection, schedule: Q04DX003 (ip), vehicle: Klucel (hydroxypropylcellulose) (HPC)).

Turning to `CC(=O)OCC1OC(=O)C(C)N(C)C(=O)CN(C)C(=O)C2C(=O)CC(C)N2C(=O)C(C(C)C)NC(=O)C1NC(=O)c1c2nc3c(C(=O)NC4C(=O)NC(C(C)C)C(=O)N5C(C)CC(OC(C)=O)C5C(=O)N(C)CC(=O)N(C)C(C(C)C)C(=O)OC4C)ccc(C)c3oc-2c(C)c(=O)c1N` (stereo not given), the T/C (dose: 0.05 mg/kg/injection, schedule: Q01DX009 (ip), vehicle: saline with Tween-80) is 154 % of control; the T/C (dose: 0.1 mg/kg/injection, schedule: Q01DX009 (ip), vehicle: saline with Tween-80) is 156 % of control; the T/C (dose: 0.2 mg/kg/injection, schedule: Q01DX009 (ip), vehicle: saline with Tween-80) is 189 % of control; the T/C (dose: 0.4 mg/kg/injection, schedule: Q01DX001 (ip), vehicle: saline with Tween-80) is 153 % of control; the T/C (dose: 0.4 mg/kg/injection, schedule: Q01DX009 (ip), vehicle: saline with Tween-80) is 213 % of control; the T/C (dose: 0.6 mg/kg/injection, schedule: Q04DX003 (ip), vehicle: saline with Tween-80) is 159 % of control. Moreover, the T/C by setting is: (dose: 0.8 mg/kg/injection, schedule: Q01DX001 (ip), vehicle: saline with Tween-80) 159 % of control; (dose: 0.8 mg/kg/injection, schedule: Q01DX009 (ip), vehicle: saline with Tween-80) 117 % of control; (dose: 1.2 mg/kg/injection, schedule: Q04DX003 (ip), vehicle: saline with Tween-80) 189 % of control; (dose: 1.6 mg/kg/injection, schedule: Q01DX001 (ip), vehicle: saline with Tween-80) 159 % of control; (dose: 2.4 mg/kg/injection, schedule: Q04DX003 (ip), vehicle: saline with Tween-80) 117 % of control; (dose: 3.2 mg/kg/injection, schedule: Q01DX001 (ip), vehicle: saline with Tween-80) 189 % of control.

Regarding `O=c1nc(-c2ccccc2)nc2ccccn12`, the T/C is 101 % of control under setting [13], 106 % of control under setting [10] and 111 % of control under setting [11].

Turning to `O=C1N=C(C(F)(F)F)N=C1c1[nH]c(C(F)(F)F)nc1O`, the T/C was 111 % of control under setting [13]; 102 % of control under setting [10]; 100 % of control under setting [3]; 102 % of control under setting [11]; 102 % of control under setting [4]; 116 % of control under setting [12]. Further, the T/C under setting [5] is 98 % of control.

On to `Brc1cc(Br)c(I)c(Br)c1`, for which the T/C was 105 % of control (dose: 100.0 mg/kg/injection, schedule: Q01DX009 (ip), vehicle: other); 100 % of control (dose: 200.0 mg/kg/injection, schedule: Q01DX009 (ip), vehicle: other); 90 % of control (dose: 400.0 mg/kg/injection, schedule: Q01DX009 (ip), vehicle: other).

Turning to `CC(=O)N(C)Nc1ccccc1`, the T/C is, setting by setting: (dose: 50.0 mg/kg/injection, schedule: Q04DX003 (ip), vehicle: saline with Tween-80) 100 % of control; under setting [3], 90 % of control and 100 % of control; under setting [4], 105 % of control.
